These results are taken from patent US9750719B2, “Tetrazole compounds as calcium channel blockers” (CONVERGENCE PHARMACEUTICALS LIMITED, priority 2010, dated 2017).

Where a name gives a salt, the structure may show the parent alone.

The assay deals with T1, human Cav2.2 α (α1B) subunit, along with the human β3 and α2δ1 auxiliary subunits (Homo sapiens, UniProt Q00975).
T1 construct: expressed in transfected cells
T1 sequence (Q00975 whole entry): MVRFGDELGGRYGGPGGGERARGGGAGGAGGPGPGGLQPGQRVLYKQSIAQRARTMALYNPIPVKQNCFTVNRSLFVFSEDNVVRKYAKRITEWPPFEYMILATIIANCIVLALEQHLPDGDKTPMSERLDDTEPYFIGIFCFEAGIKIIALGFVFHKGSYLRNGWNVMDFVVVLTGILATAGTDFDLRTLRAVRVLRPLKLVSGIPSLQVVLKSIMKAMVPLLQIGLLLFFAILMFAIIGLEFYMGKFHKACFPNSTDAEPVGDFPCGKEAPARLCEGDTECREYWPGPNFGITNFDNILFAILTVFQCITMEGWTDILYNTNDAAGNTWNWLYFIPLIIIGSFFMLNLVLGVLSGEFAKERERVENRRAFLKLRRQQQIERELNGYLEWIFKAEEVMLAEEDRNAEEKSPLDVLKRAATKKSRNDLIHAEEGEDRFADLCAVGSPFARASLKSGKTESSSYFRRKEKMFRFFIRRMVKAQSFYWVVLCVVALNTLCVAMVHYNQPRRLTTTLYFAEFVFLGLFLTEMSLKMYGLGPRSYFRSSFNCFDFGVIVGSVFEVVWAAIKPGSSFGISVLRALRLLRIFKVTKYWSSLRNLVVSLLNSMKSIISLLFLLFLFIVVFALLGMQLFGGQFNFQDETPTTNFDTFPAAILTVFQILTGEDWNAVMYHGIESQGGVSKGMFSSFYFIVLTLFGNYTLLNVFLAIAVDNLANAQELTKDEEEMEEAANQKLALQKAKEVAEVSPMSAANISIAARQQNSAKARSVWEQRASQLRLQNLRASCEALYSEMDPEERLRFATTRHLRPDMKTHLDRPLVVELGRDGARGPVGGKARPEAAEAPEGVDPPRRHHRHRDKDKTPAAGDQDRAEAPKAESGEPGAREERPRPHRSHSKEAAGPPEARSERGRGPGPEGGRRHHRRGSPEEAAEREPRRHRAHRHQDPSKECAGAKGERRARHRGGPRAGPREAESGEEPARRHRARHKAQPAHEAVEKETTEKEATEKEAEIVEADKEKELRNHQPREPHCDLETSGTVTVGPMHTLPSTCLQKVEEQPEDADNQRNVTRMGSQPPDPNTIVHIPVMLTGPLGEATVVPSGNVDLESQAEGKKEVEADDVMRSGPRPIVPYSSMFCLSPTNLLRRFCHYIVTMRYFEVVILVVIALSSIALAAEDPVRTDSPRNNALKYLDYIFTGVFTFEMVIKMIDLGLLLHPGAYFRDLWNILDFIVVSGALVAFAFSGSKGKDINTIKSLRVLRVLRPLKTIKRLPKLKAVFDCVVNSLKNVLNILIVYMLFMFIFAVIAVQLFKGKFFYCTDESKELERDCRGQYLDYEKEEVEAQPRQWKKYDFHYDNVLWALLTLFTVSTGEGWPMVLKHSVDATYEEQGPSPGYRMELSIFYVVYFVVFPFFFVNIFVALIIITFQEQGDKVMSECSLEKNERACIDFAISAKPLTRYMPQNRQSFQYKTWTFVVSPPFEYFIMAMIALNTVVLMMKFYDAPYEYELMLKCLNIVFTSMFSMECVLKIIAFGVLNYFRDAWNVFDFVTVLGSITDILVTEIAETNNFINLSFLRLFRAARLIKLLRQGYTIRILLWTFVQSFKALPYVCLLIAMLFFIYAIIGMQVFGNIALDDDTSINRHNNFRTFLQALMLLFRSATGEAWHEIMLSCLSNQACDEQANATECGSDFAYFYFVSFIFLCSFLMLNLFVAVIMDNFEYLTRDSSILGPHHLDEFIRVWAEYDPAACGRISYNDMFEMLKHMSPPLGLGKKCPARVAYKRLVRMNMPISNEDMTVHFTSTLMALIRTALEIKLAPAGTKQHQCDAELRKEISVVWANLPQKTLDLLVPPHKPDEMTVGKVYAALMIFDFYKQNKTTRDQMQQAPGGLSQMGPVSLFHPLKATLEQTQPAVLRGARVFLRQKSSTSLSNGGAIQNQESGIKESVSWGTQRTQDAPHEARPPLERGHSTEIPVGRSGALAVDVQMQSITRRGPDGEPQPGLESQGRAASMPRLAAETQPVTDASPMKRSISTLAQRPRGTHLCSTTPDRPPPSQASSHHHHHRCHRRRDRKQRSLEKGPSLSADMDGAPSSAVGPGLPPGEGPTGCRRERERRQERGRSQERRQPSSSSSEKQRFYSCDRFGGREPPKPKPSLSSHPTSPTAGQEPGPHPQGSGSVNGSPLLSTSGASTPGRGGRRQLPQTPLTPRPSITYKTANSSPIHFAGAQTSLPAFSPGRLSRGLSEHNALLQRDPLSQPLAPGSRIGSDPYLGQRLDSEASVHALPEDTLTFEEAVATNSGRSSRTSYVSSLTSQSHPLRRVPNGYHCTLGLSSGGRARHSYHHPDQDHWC
T1 sequence (P54284 whole entry partner): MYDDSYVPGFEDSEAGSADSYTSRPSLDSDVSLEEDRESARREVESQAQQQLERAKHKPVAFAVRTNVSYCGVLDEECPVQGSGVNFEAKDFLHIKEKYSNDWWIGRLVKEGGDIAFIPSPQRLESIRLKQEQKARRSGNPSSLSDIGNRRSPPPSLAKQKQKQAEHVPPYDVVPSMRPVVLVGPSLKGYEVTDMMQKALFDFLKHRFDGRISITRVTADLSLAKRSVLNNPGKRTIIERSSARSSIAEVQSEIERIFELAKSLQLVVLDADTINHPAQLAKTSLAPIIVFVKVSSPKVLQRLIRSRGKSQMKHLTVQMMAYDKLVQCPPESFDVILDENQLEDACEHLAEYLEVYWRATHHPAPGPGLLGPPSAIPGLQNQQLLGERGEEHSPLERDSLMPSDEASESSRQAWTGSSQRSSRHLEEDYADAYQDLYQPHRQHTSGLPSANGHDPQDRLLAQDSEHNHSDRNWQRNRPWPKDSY
T1 sequence (P54289 25-946 partner limits assumed): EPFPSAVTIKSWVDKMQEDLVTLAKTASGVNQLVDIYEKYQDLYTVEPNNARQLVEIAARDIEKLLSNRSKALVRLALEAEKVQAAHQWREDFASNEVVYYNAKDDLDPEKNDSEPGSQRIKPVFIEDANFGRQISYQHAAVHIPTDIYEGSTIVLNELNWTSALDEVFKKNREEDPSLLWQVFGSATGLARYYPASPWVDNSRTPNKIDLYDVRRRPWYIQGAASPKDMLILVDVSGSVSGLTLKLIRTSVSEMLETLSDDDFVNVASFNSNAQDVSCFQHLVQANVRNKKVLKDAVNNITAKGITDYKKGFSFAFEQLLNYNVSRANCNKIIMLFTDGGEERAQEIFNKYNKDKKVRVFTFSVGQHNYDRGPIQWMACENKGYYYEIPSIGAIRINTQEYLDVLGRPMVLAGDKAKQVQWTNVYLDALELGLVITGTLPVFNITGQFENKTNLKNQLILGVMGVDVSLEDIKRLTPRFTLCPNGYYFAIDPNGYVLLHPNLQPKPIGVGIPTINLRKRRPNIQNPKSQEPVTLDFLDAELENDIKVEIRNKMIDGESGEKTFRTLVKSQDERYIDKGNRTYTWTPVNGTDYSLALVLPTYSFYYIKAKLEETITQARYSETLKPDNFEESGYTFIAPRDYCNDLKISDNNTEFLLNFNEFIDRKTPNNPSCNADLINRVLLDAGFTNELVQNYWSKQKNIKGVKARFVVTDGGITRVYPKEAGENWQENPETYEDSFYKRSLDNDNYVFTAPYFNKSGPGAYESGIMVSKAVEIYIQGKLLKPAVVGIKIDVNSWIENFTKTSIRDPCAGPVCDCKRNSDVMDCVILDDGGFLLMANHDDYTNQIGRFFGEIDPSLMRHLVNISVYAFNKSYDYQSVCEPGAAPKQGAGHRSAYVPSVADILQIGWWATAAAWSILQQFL
T1 sequence (P54289 947-1103 partner limits assumed): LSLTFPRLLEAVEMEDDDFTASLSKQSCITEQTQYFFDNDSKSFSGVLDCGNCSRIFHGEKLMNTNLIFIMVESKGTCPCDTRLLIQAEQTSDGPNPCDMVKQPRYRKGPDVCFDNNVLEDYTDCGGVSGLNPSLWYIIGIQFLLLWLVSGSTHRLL
Kind of assay: hCav2.2 assay, IonWorks planar array electrophysiology in stable HEK293 cell line. Type of assay: cell-based. The conditions noted are these: inhibition by 50% of current elicited by the 1st depolarising pulse; HEK293 cells; read-out: tonic pIC50 (converted). The procedure:
Compounds as defined in the first or second aspect may be tested for in vitro biological activity in the hCav2.2 assay in accordance with the following studies:
Stable cell lines expressing the human Cav2.2 α (α1B) subunit, along with the human β3 and α2δ1 auxiliary subunits were created following sequential transfection and selection of human embryonic kidney (HEK293) cells. HEK293 cells were cultured in Dulbecco's modified Eagles media/F12 media (Invitrogen, Cat #041-95750V) containing 10% fetal bovine serum, with added L-glutamine (2 mM; Invitrogen, Cat #25030-024) and non-essential amino acids (5%; Invitrogen, Cat #11140-035). Initially HEK293 cells were transfected with two plasmid vectors for expression of the hCav2.2 α subunit (pCIN5-hCav2.2 which carries a neomycin resistance marker) and the hCav β3 subunit (pCIH-hCav β3 which carries a hygromycin resistance marker). Clonal cell lines were isolated following selection in media supplemented with 0.4 mg ml^−1 Geneticin G418 (Invitrogen, Cat #10131-027) and 0.1 mg ml^−1 hygromycin (Invitrogen, Cat #10687-010). These clonal cell lines were assessed for Cav2.2 α/β3-mediated current expression using the IonWorks planar array electrophysiology technology (described below). A clonal line was identified that gave a reasonable level of functional Cav2.2 α/β3 current expression. This cell line was transfected with a plasmid vector for expression of the human α2δ1 subunit (pCIP-α2δ1 which carries a puromycin resistance marker) and clonal cell lines isolated following selection in media containing 0.62 μg ml^−1 puromycin (Sigma, Cat #P-7255), in addition to 0.4 mg ml^−1 Geneticin G418 and 0.1 mg ml^−1 hygromycin. Several cell lines were identified that gave robust levels of Cav2.2 α/β3/α2δ1-mediated current expression and one of these was selected for compound profiling. Expression of all three subunits within this cell line was continuously maintained by the inclusion of G418 (0.4 mg ml^−1), hygromycin (0.1 mg ml^−1) and puromycin (0.62 μg ml^−1). Cells were maintained at 37° C. in a humidified environment containing 5% CO2 in air. Cells were liberated from the T175 culture flasks for passage and harvesting using TrpLE (Invitrogen, Cat #12604-013).
Cells were grown to 30-60% confluence in T175 flasks and maintained at 30° C. for 24 hrs prior to recording. Cells were lifted by removing the growth media, washing with Ca^2+ free PBS (Invitrogen, Cat #14190-094) and incubating with 3 ml of warmed (37° C.) TrpLE (Invitrogen, Cat #12604-013) for 6 minutes. Lifted cells were suspended in 10 ml of extracellular buffer. Cell suspension was then placed into a 15 ml tube and centrifuged for 2 minutes at 700 rpm. After centrifugation, the supernatant was removed and the cell pellet was resuspended in 4.5 ml of extracellular solution.
Currents were recorded at room temperature (21-23° C.) using the IonWorks planar array electrophysiology technology (Molecular Devices Corp.). Stimulation protocols and data acquisition were carried out using a microcomputer (Dell Pentium 4). In order to determine planar electrode hole resistances (Rp), a 10 mV, 160 ms potential difference was applied across each hole. These measurements were performed before cell addition. After cell addition a seal test was performed prior to antibiotic (amphotericin) circulation to achieve intracellular access. Leak subtraction was conducted in all experiments by applying a 160 ms hyperpolarizing (10 mV) prepulse 200 ms before the test pulses to measure leak conductance. Test pulses stepping from the holding potential (VH) of −90 mV to +10 mV were applied for 20 ms and repeated 10 times at a frequency of 10 Hz. In all experiments, the test pulse protocol was performed in the absence (pre-read) and presence (post-read) of a compound. Pre- and post-reads were separated by a compound addition followed by a 3-3.5 min incubation. […]
On the technique in general: In patch-clamp work, channel activity is measured electrically.
For the compound `C[C@@H]1CN(Cc2nnnn2-c2cccc(C(F)(F)F)c2)C[C@H](C)O1` [Compound 3, (cis)-2,6-Dimethyl-4-({1-[3-(trifluoromethyl)phenyl]-1H-tetrazol-5-yl}methyl)morpholine], the IC50 was no more than 31.6 µM.
For the compound `FC(F)(F)c1ccc(-n2nnnc2CCN2CCOCC2)cc1` [Compound 9, 4-(2-{1-[4-(Trifluoromethyl)phenyl]-1H-tetrazol-5-yl}ethyl)morpholine hydrochloride], the IC50 is no more than 31.6 µM.
In the case of `C[C@@H]1CN(Cc2nnnn2-c2ccc(Cl)cc2)C[C@H](C)O1` [Compound 13, (cis)-4-{[1-(4-Chlorophenyl)-1H-tetrazol-5-yl]methyl}-2,6-dimethylmorpholine], the IC50 was no more than 31.6 µM.
For `FC(F)(F)c1cccc(-n2nnnc2CN2CCOCC2)c1` [Compound 19, 4-({1-[3-(Trifluoromethyl)phenyl]-1H-tetrazol-5-yl}methyl)morpholine], the IC50 was no more than 31.6 µM.
For the compound `Clc1ccc(-n2nnnc2CN2CCOCC2)cc1Cl` [Compound 21, 4-{[1-(3,4-Dichlorophenyl)-1H-tetrazol-5-yl]methyl}morpholine], the IC50 is no more than 10 µM.
Take `CCCS(=O)(=O)N1CCN(Cc2nnnn2-c2ccc(Cl)cc2)CC1` [Compound 23, 1-{[1-(4-Chlorophenyl)-1H-tetrazol-5-yl]methyl}-4-(propylsulfonyl)piperazine]: the IC50 is no more than 31.6 µM.
`N#CC1CCN(Cc2nnnn2-c2cccc(C(F)(F)F)c2)C1` (centres unmarked) [Compound 24, 1-({1-[3-(Trifluoromethyl)phenyl]-1H-tetrazol-5-yl}methyl)-3-pyrrolidinecarbonitrile hydrochloride]: the IC50 was no more than 31.6 µM.
On to `C[C@@H]1COCCN1Cc1nnnn1-c1cccc(C(F)(F)F)c1` [Compound 25, (3R)-3-Methyl-4-({1-[3-(trifluoromethyl)phenyl]-1H-tetrazol-5-yl}methyl)morpholine hydrochloride], for which the IC50 is no more than 3.16 µM.
The figure for `C[C@@H]1COCCN1Cc1nnnn1-c1ccc(C(F)(F)F)cc1` [Compound 28, (3R)-3-Methyl-4-({1-[4-(trifluoromethyl)phenyl]-1H-tetrazol-5-yl}methyl)morpholine hydrochloride] is no more than 3.16 µM; for `CC1(C)COCCN1Cc1nnnn1-c1cccc(C(F)(F)F)c1` [Compound 29, 3,3-Dimethyl-4-({1-[3-(trifluoromethyl)phenyl]-1H-tetrazol-5-yl}methyl)morpholine] it is no more than 10 µM.
Consider `C[C@@H]1CN(Cc2nnnn2-c2ccc(C#N)c(C(F)(F)F)c2)C[C@H](C)O1` [Compound 30, 4-(5-{[cis-2,6-Dimethyl-4-morpholinyl]methyl}-1 H-tetrazol-1-yl)-2-(trifluoromethyl)benzonitrile], for which the IC50 is no more than 10 µM.
As for `CC1C(=O)N(C)CCN1Cc1nnnn1-c1cccc(C(F)(F)F)c1` (centres unmarked) [Compound 33, 1,3-Dimethyl-4-({1-[3-(trifluoromethyl)phenyl]-1H-tetrazol-5-yl}methyl)-2-piperazinone], the IC50 is 63.1 µM.
Consider `N#Cc1ccc(-n2nnnc2CN2CCOCC2)cc1C(F)(F)F` [Compound 34, 4-[5-(4-Morpholinylmethyl)-1H-tetrazol-1-yl]-2-(trifluoromethyl)benzonitrile hydrochloride], for which the IC50 was no more than 31.6 µM.
For the compound `C[C@H]1COCCN1Cc1nnnn1-c1ccc(C(F)(F)F)cc1` [Compound 39, (3S)-3-Methyl-4-({1-[4-(trifluoromethyl)phenyl]-1H-tetrazol-5-yl}methyl)morpholine hydrochloride], the IC50 is no more than 10 µM.
As for `C[C@@H]1COCCN1Cc1nnnn1-c1ccc(C#N)c(C(F)(F)F)c1` [Compound 41, 4-(5-{[(3R)-3-Methyl-4-morpholinyl]methyl}-1H-tetrazol-1-yl)-2-(trifluoromethyl)benzonitrile], the IC50 was no more than 3.16 µM.
As for `C[C@@H]1COCCN1Cc1nnnn1-c1ccc(C(F)(F)F)cn1` [Compound 42, (3R)-3-Methyl-4-({1-[5-(trifluoromethyl)-2-pyridinyl]-1H-tetrazol-5-yl}methyl)morpholine], the IC50 is no more than 31.6 µM.
As to `CN1CCN(Cc2nnnn2-c2cccc(C(F)(F)F)c2)CC1(C)C` [Compound 45, 1,2,2-Trimethyl-4-({1-[3-(trifluoromethyl)phenyl]-1H-tetrazol-5-yl}methyl)piperazine hydrochloride], the IC50 was no more than 31.6 µM.
Take `CCS(=O)(=O)N1CCN(Cc2nnnn2-c2ccc(C(F)(F)F)cc2)CC1` [Compound 47, 1-(Ethylsulfonyl)-4-({1-[4-(trifluoromethyl)phenyl]-1H-tetrazol-5-yl}methyl)piperazine]: the IC50 was no more than 10 µM.
For `CCS(=O)(=O)N1CCN(Cc2nnnn2-c2cccc(C(F)(F)F)c2)CC1` [Compound 48, 1-(Ethylsulfonyl)-4-({1-[3-(trifluoromethyl)phenyl]-1H-tetrazol-5-yl}methyl)piperazine], the IC50 was no more than 3.16 µM.
As to `CCN1CCN(Cc2nnnn2-c2ccc(C(F)(F)F)cc2)[C@H](C)C1=O` [Compound 52, (3R)-1-Ethyl-3-methyl-4-({1-[4-(trifluoromethyl)phenyl]-1H-tetrazol-5-yl}methyl)-2-piperazinone], the IC50 was no more than 31.6 µM.
In the case of `C[C@@H]1COCCN1Cc1nnnn1-c1ccc(OC(F)F)cc1` [Compound 54, (3R)-4-[(1-{4-[(Difluoromethyl)oxy]phenyl}-1H-tetrazol-5-yl)methyl]-3-methylmorpholine hydrochloride], the IC50 was no more than 31.6 µM.
For `C[C@@H]1CN(Cc2nnnn2-c2ccc(Br)cc2Cl)C[C@H](C)O1` [Compound 57, cis-4-{[1-(4-Bromo-2-chlorophenyl)-1H-tetrazol-5-yl]methyl}-2,6-dimethylmorpholine hydrochloride], the IC50 is no more than 31.6 µM.
Regarding `C[C@@H]1COC[C@H](C)N1Cc1nnnn1-c1cccc(C(F)(F)F)c1` [Compound 64, (cis)-3,5-dimethyl-4-({1-[3-(Trifluoromethyl)phenyl]-1H-tetrazol-5-yl}methyl)morpholine hydrochloride], the IC50 was no more than 31.6 µM.
The same measure for `FC(F)(F)c1cccc(-n2nnnc2CNC2CCCCC2)c1` [Compound 65, N-({1-[3-(Trifluoromethyl)phenyl]-1H-tetrazol-5-yl}methyl)cyclohexanamine hydrochloride]: no more than 31.6 µM; for `FC(F)(F)c1ccc(-n2nnnc2CN2CCN3CCCC3C2)cc1` (centres unmarked) [Compound 70, 2-({1-[4-(Trifluoromethyl)phenyl]-1H-tetrazol-5-yl}methyl)octahydropyrrolo[1,2-a]pyrazine di-hydrochloride]: no more than 31.6 µM.
The figure for `CS(=O)(=O)N1CCN(Cc2nnnn2-c2ccc(C(F)(F)F)cc2)CC1` [Compound 71, 1-(Methylsulfonyl)-4-({1-[4-(trifluoromethyl)phenyl]-1H-tetrazol-5-yl}methyl)piperazine] is no more than 3.16 µM; for `CS(=O)(=O)N1CCN(Cc2nnnn2-c2cccc(C(F)(F)F)c2)CC1` [Compound 72, 1-(Methylsulfonyl)-4-({1-[3-(trifluoromethyl)phenyl]-1H-tetrazol-5-yl}methyl)piperazine] it is no more than 10 µM.
`N#Cc1ccc(-n2nnnc2CN2CCC[C@@H]2C(F)(F)F)cc1` [Compound 73, 4-(5-{[(2R)-2-(Trifluoromethyl)-1-pyrrolidinyl]methyl}-1H-tetrazol-1-yl)benzonitrile]: the IC50 is no more than 31.6 µM.
Turning to `O=C1CCC2CN(Cc3nnnn3-c3ccc(C(F)(F)F)cc3)CCN12` (centres unmarked) [Compound 74, 2-({1-[4-(Trifluoromethyl)phenyl]-1H-tetrazol-5-yl}methyl)hexahydropyrrolo[1,2-a]pyrazin-6(2H)-one], the IC50 is no more than 10 µM.
